Ends that are not written are not given here.
Tests used:
Assay type in all cases: cell-based, mouse
[1] = tested on: Meth A cell line; assay: Cr-release assay of peptide-induced killer T cells on Meth A cells; conditions: spontaneously expressing SPARC, 4 hours co-culture
Description: (§1) Bone marrow-derived dendritic cells (BM-DC) were induced from bone marrow cells derived from BALBc bone marrow by using GM-CSF as described previously by us (Nakatsura, T et al., Clin Cancer Res 10, 8630-8640, 2004). Thus the obtained BM-DC were cultured with a mixture of the 4 types of peptides selected as described above at a concentration of 10 μM for 2 hours, and the peptide-pulsed BM-DC (5×10^5 cells) were then intraperitoneally administered to each mouse. After an interval of 1 week, the same peptide-pulsed BM-DC were administered to the mouse twice, so that the mouse was strongly immunized. Thereafter, the spleen cells of the mouse were recovered and induction of killer T cells was evaluated. In order to strictly analyze induction of killer T cells derived from CD8^+ T cells, after collection of the spleen, CD4^+ T cells were eliminated from the collected spleen cells, using MACS beads, and the remaining cells were then used for analysis.
(§2) The following protocols were used for generation and characterization of SPARC-specific killer T cells (The day of recovering the spleen cells from the immunized mouse was defined as Day 0.) • Day-21 (1) GM-CSF was added to the bone marrow cells of a BALB/c mouse, so as to start induction of bone marrow-derived dendritic cells (hereinafter referred to as BM-DC). • Day-14 (2) A mixture of the 4 types of SPARC peptides was added to the induced BM-DC, and 2 hours later, 5×10^5 cells were intraperitoneally administered to each mouse. • Steps (1) and (2) were repeated twice every other week. • Day 0 The spleen cells of the immunized BALB/c mouse were recovered. The cells were co-cultured with BM-DC prepulsed with each SPARC peptide for 2 hours. […]
(§3) The cytotoxic activity of the induced SPARC-specific killer T cells on tumor cells was analyzed as follows. […] Thereafter, a culture supernatant was recovered, and the amount of radioactive Cr released from dead cells was quantified, so that cytotoxic activity was detected.

[2] = tested on: BALB/3T3 cell line; assay: Cr-release assay of peptide-induced killer T cells on BALB/3T3 cells; conditions: BALB/3T3, spontaneously expressing SPARC; 4 hours co-culture
Description: as §1, §2, §3

[3] = tested on: T2K^d cells loaded with SPARC K^d peptide; assay: Cr-release assay of peptide-induced killer T cells on peptide-loaded T2K^d cells; conditions: T2K^d cells loaded with the SPARC K^d peptide; 4 hours co-culture; CTL from BM-DC-immunized BALB/c mice
Description: as §1, §2, §3

Measured: Cytotoxicity of induced killer T cells (Cr release)

DYIGPCKYI [SPARC- K^d-1, DYIGPCKYI]
cytotoxicity was observed: all assays above

MYIFPVHWQF [SPARC- K^d-4, MYIFPVHWQF]
cytotoxicity was observed: all assays above

EFPLRMRDWL [SPARC- K^d-3, EFPLRMRDWL]
cytotoxicity was observed: all assays above

Reference: patent publication US8470968B2, “SPARC-derived tumor rejection antigenic peptides and medicaments comprising the same” (Onco Therapy Science, Inc., priority 2006, dated 2013)
